The source of these data is patent publication US12226396B2, “Gluconic acid derivatives for use in the treatment and/or prevention of microbial infections” (GEDEA BIOTECH AB, priority 2017, dated 2025).

The test system of data set [1] is Candida albicans. Kind of data set: Biofilm formation assay (crystal violet). Type of data set: cell-based. Conditions: for normalized biofilm (% of control): 0.06 wt % acid, unbuffered, biofilm measured after 24 h; for normalized biofilm (OD560) at pH 2.6: pH 2.6, 24 h treatment; for normalized biofilm (OD560) at pH 6.1: pH 6.1, 24 h treatment. How it is done:
(§1) Yeast strains (Table 1) were grown at 37° C. in complete medium YPD (0.5% yeast extract, 1% peptone, 2% glucose) or minimal medium consisting of YNB (yeast nitrogen base without amino acids and ammonium sulphate, FORMEDIUM™, CYN0505) supplemented with 0.5% ammonium sulphate, 0.2% glucose and 100 mM L-proline. If needed 2% agar was used to solidify media. The liquid minimal medium (YNB (yeast nitrogen base without amino acids and ammonium sulphate, FORMEDIUM™, CYN0505) supplemented with 0.5% ammonium sulphate, 0.2% glucose and 100 mM L-proline) was used for biofilm assay (biofilm medium).
(§2) In the experiments on the impact of pH on biofilm the pH values (from 2.6 to 6.6) were obtained using either different potassium phosphate buffers at the final concentration 0.25 M, or by the addition of citric acid, lactic acid, and gluconic acid to the biofilm medium.
(§3) Biofilm was measured in liquid culture as described [K. Scherz et al., G3 (Bethesda), 2014, 4, 1671-1680. I. Serrano-Fujarte et al. Biomed Res Int. 2015; 2015:783639] with some modifications. Prior the biofilm assay, yeast cultures were grown in liquid YPD medium for 24 hours until stationary phase (OD600 11-17)^2, cells were then pelleted by centrifugation (1699 g), washed with sterile water and cells were further inoculated into test biofilm medium (YNB (yeast nitrogen base without amino acids and ammonium sulphate) supplemented with 0.5% ammonium sulphate, 0.2% glucose and 100 mM L-proline pH7.0) at final concentration 0.2 OD600/ml and incubated in 96-well flat-bottom polystyrene microtiter plates (Sigma Aldrich, Corning® Costar® culture plates, CLS3596-50EA) for 72 hours at 37° C. thermostat. At defined time points crystal violet (HT901-8FOZ; Sigma Aldrich) was added to the media at the final concentration 0.05%, in addition total biomass was measured. After 24 hours of cells staining, plate wells were washed four times with 200 μl of water to remove planktonic cells, biofilms were then dried and dissolved in 200 μl of 96% ethanol. Total biomass and crystal violet biofilm staining measurements were performed at OD560 with FLUOstar OPTIMA plate reader, BMG LABTECH. Crystal violet biofilm measurements were normalized to the total biomass (OD560Biofilm/OD560 total biomass).
(§4) To compare the effects of different hydroxylated carboxylic acids at low concentrations, the biofilm formation was measured 24 h after addition of 0.06 wt % of glyceric acid, xylonic acid, citric acid, gluconic acid, and lactic acid, under unbuffered conditions.
In order to further evaluate the effect of gluconic acid in preventing biofilm formation, the biofilm formation at different pH were determined (as described in Example 1) for gluconic acid, lactic acid and citric acid.

The subject of data set [2] is Candida glabrata. Kind of data set: Biofilm formation assay (crystal violet). In kind it is cell-based. The conditions noted are these: for normalized biofilm (OD560) at pH 2.6: pH 2.6, 72 h treatment; for normalized biofilm (OD560) at pH 6.1: pH 6.1, 72 h treatment. How it is done: as §1, §2, §3
Candida glabrata is much more complicated to treat, compared to Candida albicans. However, a clear effect is obtained by longer treatment, i.e. 72 h with gluconic acid (Table 4).

The subject of data set [3] is Escherichia coli K12. Kind of data set: E. coli biofilm study in M9 medium (crystal violet). In kind it is cell-based. The conditions noted are these: for effect on growth (biomass): M9 medium, 24-48 hours; for biofilm lowered: pH 6.6. How it is done:
The bacterial strain Escherichia coli K12 was used for the biofilm study. This strain was maintained on LB medium at 37° C. The biofilm was studied in synthetic medium M9 (×1 M9 minimal salts (Sigma M6030), 2 mM MgSO4, 0.1 mM CaCl2, and 0.2% glucose), which contained either phosphate buffer, citric acid, lactic acid, gluconic acid or glucono-O-lactone to obtain media with different pH (2.6-6.6).
The overnight culture of E. coli K12 (OD600˜5.0) was washed with sterile water and inoculated to the final concentration 0.2 OD/ml of M9 medium with different pH of different compounds. The biofilm development was studied in 96-well flat-bottom polystyrene microtiter plates (Sigma Aldrich, Corning® Costar® culture plates, CLS3596-50EA). The biofilm was stained with crystal violet.

The nature of data set [4]: Resulting pH of biofilm medium after addition of hydroxylated carboxylic acid. In kind it is physicochemical. The conditions noted are these: 0.06% acid in biofilm medium, unbuffered. On the procedure:
as §4

Structures are written as SMILES. Some results are limits rather than exact numbers.

With `O=C(O)CC(O)(CC(=O)O)C(=O)O` [citric acid], in data set [1], the “normalized biofilm (% of control)” value was 14 % of control, the “normalized biofilm (OD560) at pH 2.6” value is on record as 0.34 OD560 and the “normalized biofilm (OD560) at pH 6.1” value was 4.6 OD560. Also, in data set [2], the “normalized biofilm (OD560) at pH 2.6” value came out at 1.0 OD560 and the “normalized biofilm (OD560) at pH 6.1” value is reported as 2.9 OD560. Moreover, in data set [3], the “effect on growth (biomass)” value is “inhibiting effect on the growth”. Further, the “resulting pH” value in data set [4] is reported as 4.6.

`O=C(O)[C@H](O)[C@@H](O)[C@H](O)[C@H](O)CO` [gluconic acid]: in data set [1], the “normalized biofilm (% of control)” value was 6 % of control and the “normalized biofilm (OD560) at pH 6.1” value was 0.17 OD560. For the same compound, in data set [1] (0.06 wt %, 24 h, 6% vs 13% of control), the “less biofilm formation on replacing lactic acid by gluconic acid” value is > 50%. For the same compound, in data set [2], the “normalized biofilm (OD560) at pH 2.6” value turned out to be 0.07 OD560 and the “normalized biofilm (OD560) at pH 6.1” value is given as 1.6 OD560. Also, in data set [3], the “effect on growth (biomass)” value is “inhibiting effect on the growth” and the biofilm lowered is given as ~2 fold. Also, the “biofilm lower compared to the phosphate medium” value in data set [3] (pH 2.6) came out at 38 fold. Moreover, in data set [3] (pH 3.0), the “biofilm lower compared to the phosphate medium” value stood at 15 fold. Further, the “resulting pH” value in data set [4] is on record as 6.5.

As for `O=C(O)C(O)CO` (centres unmarked) [glyceric acid], in data set [1], the “normalized biofilm (% of control)” value is reported as 40 % of control. The “resulting pH” value in data set [4] stood at 7.0.

For the compound `CC(O)C(=O)O` (centres unmarked) [lactic acid], in data set [1], the “normalized biofilm (% of control)” value is given as 13 % of control, the “normalized biofilm (OD560) at pH 2.6” value is 1.6 OD560 and the “normalized biofilm (OD560) at pH 6.1” value stood at 3.1 OD560. Moreover, in data set [2], the “normalized biofilm (OD560) at pH 2.6” value turned out to be 0.9 OD560 and the “normalized biofilm (OD560) at pH 6.1” value came to 2.8 OD560. Besides, in data set [3], the “effect on growth (biomass)” value is listed as “inhibiting effect on the growth” and the biofilm lowered is ~2 fold. Besides, in data set [4], the “resulting pH” value was found to be 4.9.

On to `O=C(O)[C@H](O)[C@@H](O)[C@H](O)CO` [xylonic acid], for which the “normalized biofilm (% of control)” value in data set [1] is listed as 31 % of control. Also, the “resulting pH” value in data set [4] is 7.0.
